In ChEMBL document CHEMBL3853318, “Structure-Based Optimization of Potent, Selective, and Orally Bioavailable CDK8 Inhibitors Discovered by High-Throughput Screening” (J Med Chem, 2016):

Experiments:
[1] = biological target: CDK8/Cyclin C (Homo sapiens, UniProt P49336); assay: Inhibition of Alexa647 tracer binding to full length recombinant human His-tagged CDK8/cyclin C expressed in Baculovirus expression system preincubated for 20 mins followed by tracer addition and incubated in dark for 60 mins by FRET-based Lanthascreen assay
[2] = Intrinsic clearance in rat liver microsomes at 1 uM preincubated for 5 mins followed by NADPH addition measured after 5 to 30 mins by LC-MS/MS analysis; assay type: ADME; details: read-out: CLH
[3] = biological target: Cyclin-dependent kinase 8 (Homo sapiens, UniProt P49336); assay: Inhibition of CDK8 in human 7dF3 cells preincubated for 2 hrs followed by beta-oestradiol addition measured after 24 hrs by luciferase reporter gene assay; assay type: cell-based
[4] = Intrinsic clearance in human liver microsomes at 1 uM preincubated for 5 mins followed by NADPH addition measured after 5 to 30 mins by LC-MS/MS analysis; assay type: ADME; details: read-out: CLH
[5] = Intrinsic clearance in mouse liver microsomes at 1 uM preincubated for 5 mins followed by NADPH addition measured after 5 to 30 mins by LC-MS/MS analysis; assay type: ADME; details: read-out: CLH
[6] = biological target: T1, Rho-associated protein kinase 2 (Homo sapiens, UniProt O75116); assay: Inhibition of ROCK-2 (unknown origin) at 1 uM relative to control
[7] = biological target: T2, Non-receptor tyrosine-protein kinase TYK2 (Homo sapiens, UniProt P29597); assay: Inhibition of TYK2 (unknown origin) at 1 uM relative to control
[8] = biological target: T3, Tyrosine-protein kinase JAK1 (Homo sapiens, UniProt P23458); assay: Inhibition of JAK1 (unknown origin) at 1 uM relative to control
[9] = biological target: T4, Tyrosine-protein kinase JAK3 (Homo sapiens) (UniProt P52333); assay: Inhibition of JAK3 (unknown origin) at 1 uM relative to control
T4 sequence (whole entry): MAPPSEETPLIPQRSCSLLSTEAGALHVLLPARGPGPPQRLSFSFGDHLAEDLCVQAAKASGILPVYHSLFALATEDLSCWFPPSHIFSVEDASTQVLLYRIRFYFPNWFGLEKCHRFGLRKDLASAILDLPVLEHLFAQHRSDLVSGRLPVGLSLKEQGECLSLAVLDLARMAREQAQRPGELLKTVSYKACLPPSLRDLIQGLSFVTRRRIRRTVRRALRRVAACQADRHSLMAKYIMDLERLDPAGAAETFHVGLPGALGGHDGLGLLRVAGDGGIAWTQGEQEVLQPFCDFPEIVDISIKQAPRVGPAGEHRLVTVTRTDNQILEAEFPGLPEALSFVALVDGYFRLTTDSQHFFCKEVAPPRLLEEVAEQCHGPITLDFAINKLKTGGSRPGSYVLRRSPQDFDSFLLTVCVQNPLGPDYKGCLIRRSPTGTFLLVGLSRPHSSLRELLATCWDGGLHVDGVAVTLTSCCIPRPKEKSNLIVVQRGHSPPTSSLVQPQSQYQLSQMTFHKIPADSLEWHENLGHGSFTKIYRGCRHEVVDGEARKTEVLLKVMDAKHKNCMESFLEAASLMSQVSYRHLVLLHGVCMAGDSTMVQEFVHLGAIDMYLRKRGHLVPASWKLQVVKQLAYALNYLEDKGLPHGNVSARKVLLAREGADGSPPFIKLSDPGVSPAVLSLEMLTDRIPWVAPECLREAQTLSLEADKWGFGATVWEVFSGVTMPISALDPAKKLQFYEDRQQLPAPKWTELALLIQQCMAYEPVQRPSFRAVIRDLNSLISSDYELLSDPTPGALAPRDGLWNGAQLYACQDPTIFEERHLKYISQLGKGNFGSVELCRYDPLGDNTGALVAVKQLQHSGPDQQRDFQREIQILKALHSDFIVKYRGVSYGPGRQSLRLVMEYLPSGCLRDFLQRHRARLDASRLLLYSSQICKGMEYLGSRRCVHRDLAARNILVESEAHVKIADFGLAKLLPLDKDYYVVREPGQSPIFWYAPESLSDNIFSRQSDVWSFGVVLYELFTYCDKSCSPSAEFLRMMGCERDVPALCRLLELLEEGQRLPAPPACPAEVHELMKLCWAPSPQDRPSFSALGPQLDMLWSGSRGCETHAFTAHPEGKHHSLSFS

[10] = biological target: T5, Tyrosine-protein kinase JAK2 (Homo sapiens, UniProt O60674); assay: Inhibition of JAK2 (unknown origin) at 1 uM relative to control
[11] = test system: 7dF3; assay: Ratio of IC50 for CDK8 in human 7dF3 cells to IC50 for Alexa647 tracer binding to full length recombinant human His-tagged CDK8/cyclin C; assay type: cell-based
[12] = biological target: T1, Rho-associated protein kinase 2; assay: Inhibition of ROCK-2 (unknown origin)
[13] = biological target: T6, Tyrosine-protein kinase JAK3 (Homo sapiens, UniProt P52333); assay: Inhibition of JAK3 (unknown origin)
T6 sequence (P52333 whole entry): T4 sequence (whole entry)

[14] = biological target: T3, Tyrosine-protein kinase JAK1; assay: Inhibition of JAK1 (unknown origin)
[15] = biological target: T5, Tyrosine-protein kinase JAK2; assay: Inhibition of JAK2 (unknown origin)
[16] = Efflux ratio of permeability in human Caco2 cells at 1 uM after 2 hrs by Transwell assay; assay type: ADME, cell-based; details: Caco-2
[17] = biological target: T2, Non-receptor tyrosine-protein kinase TYK2; assay: Inhibition of TYK2 (unknown origin)
[18] = Apparent permeability from apical to basolateral side in human Caco2 cells at 1 uM after 2 hrs by Transwell assay; assay type: ADME, cell-based; details: Caco-2

T5 sequence (O60674 whole entry): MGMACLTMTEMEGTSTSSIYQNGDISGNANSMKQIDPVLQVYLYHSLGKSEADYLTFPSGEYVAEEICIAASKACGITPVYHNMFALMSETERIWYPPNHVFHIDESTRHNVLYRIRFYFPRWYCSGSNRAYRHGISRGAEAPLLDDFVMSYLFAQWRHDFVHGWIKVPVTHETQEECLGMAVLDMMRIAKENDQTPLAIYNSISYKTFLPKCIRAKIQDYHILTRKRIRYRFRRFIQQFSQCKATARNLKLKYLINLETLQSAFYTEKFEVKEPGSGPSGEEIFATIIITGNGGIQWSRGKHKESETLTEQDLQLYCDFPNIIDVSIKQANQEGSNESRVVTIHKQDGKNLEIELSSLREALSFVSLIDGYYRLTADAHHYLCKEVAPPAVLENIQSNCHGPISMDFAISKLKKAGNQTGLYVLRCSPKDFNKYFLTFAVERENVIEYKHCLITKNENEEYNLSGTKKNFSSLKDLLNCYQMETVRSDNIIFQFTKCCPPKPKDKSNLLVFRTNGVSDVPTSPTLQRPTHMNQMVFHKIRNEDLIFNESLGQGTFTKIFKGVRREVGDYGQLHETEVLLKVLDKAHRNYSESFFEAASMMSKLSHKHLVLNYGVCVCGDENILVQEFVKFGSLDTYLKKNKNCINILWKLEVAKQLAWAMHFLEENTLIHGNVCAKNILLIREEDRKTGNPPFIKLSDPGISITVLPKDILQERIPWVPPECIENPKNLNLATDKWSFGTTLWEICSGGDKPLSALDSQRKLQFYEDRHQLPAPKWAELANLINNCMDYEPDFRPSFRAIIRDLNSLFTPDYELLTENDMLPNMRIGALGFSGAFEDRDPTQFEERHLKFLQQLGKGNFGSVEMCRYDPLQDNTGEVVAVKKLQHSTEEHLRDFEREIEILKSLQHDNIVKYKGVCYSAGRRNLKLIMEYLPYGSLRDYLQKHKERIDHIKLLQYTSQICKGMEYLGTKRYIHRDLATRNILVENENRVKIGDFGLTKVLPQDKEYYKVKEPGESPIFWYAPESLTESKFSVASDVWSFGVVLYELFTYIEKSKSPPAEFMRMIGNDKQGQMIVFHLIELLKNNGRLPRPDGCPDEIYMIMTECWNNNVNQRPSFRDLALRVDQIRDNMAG
T3 sequence (P23458 whole entry): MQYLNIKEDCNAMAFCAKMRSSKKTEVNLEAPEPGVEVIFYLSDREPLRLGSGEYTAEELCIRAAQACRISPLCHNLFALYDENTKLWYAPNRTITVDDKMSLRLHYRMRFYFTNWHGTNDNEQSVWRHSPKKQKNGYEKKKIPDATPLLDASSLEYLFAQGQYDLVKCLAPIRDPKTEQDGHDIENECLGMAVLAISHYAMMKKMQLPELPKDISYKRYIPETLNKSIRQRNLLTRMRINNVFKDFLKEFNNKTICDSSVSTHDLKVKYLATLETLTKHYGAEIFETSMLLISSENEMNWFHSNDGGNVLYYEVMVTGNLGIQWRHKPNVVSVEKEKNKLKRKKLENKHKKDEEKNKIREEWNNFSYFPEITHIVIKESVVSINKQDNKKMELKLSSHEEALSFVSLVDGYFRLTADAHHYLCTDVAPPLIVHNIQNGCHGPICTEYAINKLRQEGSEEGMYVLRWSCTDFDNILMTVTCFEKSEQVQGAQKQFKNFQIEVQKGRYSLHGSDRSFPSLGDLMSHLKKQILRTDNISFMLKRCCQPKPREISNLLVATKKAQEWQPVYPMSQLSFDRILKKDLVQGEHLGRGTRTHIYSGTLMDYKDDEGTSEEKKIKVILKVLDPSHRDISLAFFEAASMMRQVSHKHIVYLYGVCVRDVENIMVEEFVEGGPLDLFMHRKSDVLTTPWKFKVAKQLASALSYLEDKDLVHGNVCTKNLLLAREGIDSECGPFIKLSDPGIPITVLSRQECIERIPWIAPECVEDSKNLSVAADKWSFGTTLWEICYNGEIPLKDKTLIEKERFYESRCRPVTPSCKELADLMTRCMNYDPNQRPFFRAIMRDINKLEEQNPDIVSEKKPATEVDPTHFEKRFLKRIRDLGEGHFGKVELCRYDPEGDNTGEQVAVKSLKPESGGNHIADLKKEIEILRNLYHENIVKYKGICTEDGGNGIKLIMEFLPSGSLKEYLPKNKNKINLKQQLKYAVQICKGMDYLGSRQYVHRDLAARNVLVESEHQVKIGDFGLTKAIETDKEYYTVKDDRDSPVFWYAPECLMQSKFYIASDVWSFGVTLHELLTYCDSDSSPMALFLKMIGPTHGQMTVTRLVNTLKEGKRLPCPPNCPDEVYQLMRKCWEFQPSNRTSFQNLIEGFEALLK
T2 sequence (P29597 whole entry): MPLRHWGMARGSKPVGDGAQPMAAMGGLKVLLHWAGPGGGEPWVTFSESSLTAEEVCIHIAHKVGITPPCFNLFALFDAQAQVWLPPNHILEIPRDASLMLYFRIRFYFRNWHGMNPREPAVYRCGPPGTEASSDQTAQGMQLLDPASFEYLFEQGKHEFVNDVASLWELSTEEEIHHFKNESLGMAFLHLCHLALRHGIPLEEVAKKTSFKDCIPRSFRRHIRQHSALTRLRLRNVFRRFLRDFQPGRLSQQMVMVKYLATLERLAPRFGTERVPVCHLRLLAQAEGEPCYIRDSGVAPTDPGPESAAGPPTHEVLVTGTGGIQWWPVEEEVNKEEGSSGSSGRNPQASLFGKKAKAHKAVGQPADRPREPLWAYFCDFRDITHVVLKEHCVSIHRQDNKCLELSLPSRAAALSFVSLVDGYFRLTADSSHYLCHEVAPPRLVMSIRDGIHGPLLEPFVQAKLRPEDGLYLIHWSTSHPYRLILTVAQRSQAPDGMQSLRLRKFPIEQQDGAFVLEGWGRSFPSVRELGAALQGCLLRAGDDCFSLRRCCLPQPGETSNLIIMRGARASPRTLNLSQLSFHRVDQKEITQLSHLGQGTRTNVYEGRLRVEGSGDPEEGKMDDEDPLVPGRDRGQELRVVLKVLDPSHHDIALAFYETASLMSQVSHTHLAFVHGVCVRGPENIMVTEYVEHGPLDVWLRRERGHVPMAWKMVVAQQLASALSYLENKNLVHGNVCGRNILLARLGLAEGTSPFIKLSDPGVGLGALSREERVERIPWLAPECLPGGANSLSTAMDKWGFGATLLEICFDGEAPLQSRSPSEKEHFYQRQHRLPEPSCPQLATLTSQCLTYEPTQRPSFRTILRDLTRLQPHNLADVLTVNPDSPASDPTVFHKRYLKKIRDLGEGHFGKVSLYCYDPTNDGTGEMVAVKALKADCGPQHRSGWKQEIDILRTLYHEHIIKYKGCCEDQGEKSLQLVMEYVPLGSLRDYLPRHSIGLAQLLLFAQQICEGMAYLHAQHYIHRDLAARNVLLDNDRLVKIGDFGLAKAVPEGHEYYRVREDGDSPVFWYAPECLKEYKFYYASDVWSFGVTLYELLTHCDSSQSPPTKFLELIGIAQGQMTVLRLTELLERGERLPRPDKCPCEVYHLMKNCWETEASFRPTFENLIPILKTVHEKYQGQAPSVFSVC
Sequence of Cyclin-dependent kinase 8 (P49336 whole entry): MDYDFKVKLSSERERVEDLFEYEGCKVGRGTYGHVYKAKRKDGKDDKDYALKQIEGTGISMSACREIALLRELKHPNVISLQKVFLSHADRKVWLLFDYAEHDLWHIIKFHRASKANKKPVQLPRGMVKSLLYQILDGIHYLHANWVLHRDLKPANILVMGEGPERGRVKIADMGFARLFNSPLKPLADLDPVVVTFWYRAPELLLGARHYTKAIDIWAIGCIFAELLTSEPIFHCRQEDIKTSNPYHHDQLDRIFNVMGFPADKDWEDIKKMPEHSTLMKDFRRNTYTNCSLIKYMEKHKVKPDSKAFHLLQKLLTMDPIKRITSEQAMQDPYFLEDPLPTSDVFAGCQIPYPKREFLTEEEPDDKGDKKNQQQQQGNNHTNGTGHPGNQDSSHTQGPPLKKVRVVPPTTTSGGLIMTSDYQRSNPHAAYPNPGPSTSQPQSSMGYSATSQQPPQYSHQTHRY
Sequence of CDK8/Cyclin C (P49336 whole entry): as above
Sequence of CDK8/Cyclin C (P24863 whole entry, further chain): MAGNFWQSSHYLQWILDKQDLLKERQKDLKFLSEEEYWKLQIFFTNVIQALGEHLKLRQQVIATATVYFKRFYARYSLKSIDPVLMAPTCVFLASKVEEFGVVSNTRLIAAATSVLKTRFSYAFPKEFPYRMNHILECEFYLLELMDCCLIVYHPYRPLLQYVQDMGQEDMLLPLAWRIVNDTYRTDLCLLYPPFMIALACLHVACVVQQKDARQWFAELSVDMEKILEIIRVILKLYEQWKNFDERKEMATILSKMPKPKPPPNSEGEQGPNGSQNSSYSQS

| SMILES | IC50 [1] [nM] | microsomal CLint at 1 µM [2] [µL/min/mg] | IC50 [3] [nM] | microsomal CLint at 1 µM [4] [µL/min/mg] | microsomal CLint at 1 µM [5] [µL/min/mg] | inhibition [6] [%] | inhibition [7] [%] | inhibition [8] [%] | inhibition [9] [%] | inhibition [10] [%] | Ratio IC50 [11] | IC50 [12] [nM] | IC50 [13] [nM] | IC50 [14] [nM] | IC50 [15] [nM] | efflux ratio at 2 h, 1 µM [16] | IC50 [17] [nM] | Papp A→B at 2 h, 1 µM [18] [×10⁻⁶ cm/s] |
| --- | --- | --- | --- | --- | --- | --- | --- | --- | --- | --- | --- | --- | --- | --- | --- | --- | --- | --- |
| Cc1ncc2sc(C(=O)N3CCC[C@H]3c3ccc(Cl)cc3)nn12 | 3.8 | 655 | 70 | 49 | 447 |  |  |  |  |  |  |  |  |  |  |  |  |  |
| Nc1n[nH]c2ccc(C(=O)N3CC[C@H]3c3ccc(F)cc3)cc12 | 49 | < 10 | 435 | 10 | 10 | 12 | 45 | 63 | 21 | 24 |  |  |  |  |  |  |  |  |
| Cc1n[nH]c2ccc(C(=O)N3CCN(C)CC3c3ccc(Cl)cc3)cc12 (centres undefined) | 15 | 40 | 230 | 135 | 63 |  |  |  |  |  |  |  |  |  |  |  |  |  |
| Cc1nnc2ccc(C(=O)N3CCC[C@H]3c3ccc(Cl)cc3)cn12 | 3990 | 19 | > 10000 | < 10 | 18 |  |  |  |  |  |  |  |  |  |  |  |  |  |
| Cc1n[nH]c2ccc(C(=O)N3CCC[C@H]3c3ccc(Cl)cc3)nc12 | 1.3 | 69 | 2.8 | 100 | 29 |  |  |  |  |  |  |  |  |  |  |  |  |  |
| O=C(c1ccc2[nH]ncc2c1)N1CCC[C@H]1c1ccc(Cl)cc1 | 32 | 94 | 100 | 354 | 86 |  |  |  |  |  |  |  |  |  |  |  |  |  |
| Cc1n[nH]c2ccc(C(=O)N3CCOCC3c3ccc(Cl)cc3)cc12 (centres undefined) | 8.5 | 44 | 115 | 135 | 29 |  |  |  |  |  |  |  |  |  |  |  |  |  |
| Cc1ncc2sc(C(=O)N3CCCC3c3ccccc3)nn12 (centres undefined) | 77 | 446 | 415 | 56 | 145 |  |  |  |  |  | 3 |  |  |  |  |  |  |  |
| Cc1ncc2ccc(C(=O)N3CCC[C@H]3c3ccc(Cl)cc3)cn12 | 9 | 108 | 90 | 390 | 63 |  |  |  |  |  |  |  |  |  |  |  |  |  |
| Nc1n[nH]c2ccc(C(=O)N3CCCC[C@H]3c3ccc(F)cc3)cc12 | 45 | 15 | 800 | < 10 | 28 | 22 | 17 | 21 |  | -2 |  |  |  |  |  |  |  |  |
| CCOc1ccccc1C(C)NC(=O)c1nn2c(C)ncc2s1 (centres undefined) | 781 | 38 | 2450 | 61 | > 1000 |  |  |  |  |  | 3 |  |  |  |  |  |  |  |
| CCOc1ccccc1CNC(=O)c1nn2c(C)ncc2s1 | 129 | 435 | 1650 | > 1000 | 119 |  |  |  |  |  | 3 |  |  |  |  |  |  |  |
| Nc1n[nH]c2ccc(C(=O)N3CCC[C@H]3c3ccc(F)cc3)cc12 | 32 | < 10 | 120 | < 10 | < 10 | 27 | 62 | 72 | 58 | 59 |  |  |  |  |  |  |  |  |
| Cc1ncc2sc(C(=O)N3CCCC3c3ccc(Cl)cc3)nn12 (centres undefined) | 17 | 719 | 100 | 52 | 388 |  |  |  |  |  |  |  |  |  |  |  |  |  |
| Cc1n[nH]c2cnc(C(=O)N3CCC[C@H]3c3ccc(Cl)cc3)cc12 | 11 | 70 | 125 | 206 | 61 |  |  |  |  |  |  |  |  |  |  |  |  |  |
| Cc1n[nH]c2ccc(C(=O)N3CC[C@H]3c3ccc(Cl)cc3)cc12 | 1.7 | 62 | 2 | 908 | 113 |  |  |  |  |  |  |  |  |  |  |  |  |  |
| CNc1n[nH]c2ccc(C(=O)N3CCC[C@H]3c3ccc(Cl)cc3)cc12 | 5.4 | 28 | 12 | 18 | 31 | 17 | 32 | 34 | 37 | 34 |  |  |  |  |  |  |  |  |
| Nc1n[nH]c2ccc(C(=O)N3CCC[C@H]3c3ccc(Br)cc3)cc12 | 3.1 | < 10 | 19 | < 10 | 14 | 65 | 76 | 88 | 76 | 88 |  |  |  |  |  |  |  |  |
| Cc1ncc2sc(C(=O)N3CCCC3c3ccc(F)cc3)nn12 (centres undefined) | 60 | 280 | 290 | 38 | 129 |  |  |  |  |  | 3 |  |  |  |  |  |  |  |
| Nc1n[nH]c2ccc(C(=O)N3CC[C@@H](c4ccc(Cl)cc4)C3)cc12 | 24 | 26 | 150 | < 10 | 19 | 20 | 23 | 24 | 15 |  |  |  |  |  |  |  |  |  |
| Nc1n[nH]c2ccc(C(=O)N3CCC[C@H]3c3ccc(Cl)cc3)cc12 | 4.9 | 10 | 28 | 23 | 10 | 42 | 70 | 86 | 79 | 84 |  | 1330 | 219 | 90 | 286 | 2.2 | 279 | 33.7 |
| Cc1ncc2sc(C(=O)N3CCC[C@@H]3c3ccc(Cl)cc3)nn12 | 110 | 449 | 1600 | 60 | 514 |  |  |  |  |  |  |  |  |  |  |  |  |  |
| Cc1n[nH]c2ccc(C(=O)N3CCC[C@H]3c3ccc(Cl)cc3)cc12 | 1.4 | 79 | 0.6 | 525 | 244 |  |  |  |  |  |  |  |  |  |  |  |  |  |
